Experimental data: patent US8748116B2, “1L1RL-1 as a cardiovascular disease marker and therapeutic target” (The Brigham and Women s Hospital, Inc., priority 2002, dated 2014)
“Also recorded” adds a separate entry of the source. Starred links: 1 amine or outer side, 2 acyl side, 3 side chain; linkers in the order of their positions; H or OH if unused. Positions of bridges follow the written chain, without caps; N, C: chain ends. Non-standard residues stand in square brackets, D forms with d. Residues, ends and D or L forms follow the SMILES beside them. Chains are numbered I, II in the order given. Actinocin(9to1) = Cc1c2oc3c(C)ccc(C(=O)[*:1])c3nc-2c(C(=O)[*:2])c(N)c1=O; NMeV = CN[C@H](C(=O)O)C(C)C; Sar = CNCC(=O)O

Columns and labels:
IL1RL-1 mRNA expression = assay: Northern blot of IL1RL-1 (T1/ST2) mRNA induction in cultured neonatal rat cardiac myocytes, with or without 8% cyclic mechanical strain; format: cell-based; details: for effect on the induction of IL1RL-1 mRNA expression by 8% mechanical strain: FIG. 4, applied during strain, actinomycin D 5 μg/ml (2 and 4 hours), cyclohexamide 10 μg/ml; for induction of IL1RL-1 mRNA expression in the absence of mechanical strain: FIG. 2, 3 hours, Ang II 50 nM; for induction of IL1RL-1 mRNA expression in the absence of mechanical strain / rank order potency for the induction of IL1RL-1 mRNA expression / induction of IL1RL-1 mRNA expression by the agent alone: IL-1β 10 ng/ml; for induction of IL1RL-1 mRNA expression in the absence of mechanical strain / rank order potency for the induction of T1/ST2 mRNA expression: PMA 200 nM; for rank order potency for the induction of IL1RL-1 mRNA expression: PMA 100 ng/ml, 8% strain; for induction of IL1RL-1 mRNA expression by the agent alone: PMA 100 ng/ml in the absence of strain; for rank order potency for the induction of T1/ST2 mRNA expression: strain 8%, 1 and 3 hours
Text: The approach to mechanical stimulation used an apparatus that has multiple platens that contact the underside of silicone elastomer membranes to apply a spatially isotropic biaxial strain profile to the membrane (Schaffer J L, et al., J Orthop Res, 1993, 12:709-719; and U.S. Provisional Patent application 60/144,134 filed on Jul. 16, 1999 entitled “AN APPARATUS FOR STUDYING MYOCARDIAL MECHANICAL OVERLOAD HYPERTROPHY AND USES THEREFOR, by Richard T. Lee. Six individual 78 mm membranes can be stretched at once with varying amplitudes of strain by controlling displacement of each platen with a stepper motor. Measured Green strains are accurate to ˜±0.25% at strains from 1-14% (Cheng G C, et al., Circ Res, 1997, 80:28-36; Brown T D, J Biomechanics, 2000, 33:3-14). Throughout this study, 8% biaxial strain was used.
Neonatal rat ventricular myocytes (NRVM) from 1-day old Sprague-Dawley rats were isolated by previously described methods (Springhorn J P, and Claycomb W C., Biochem J, 1989; 258:73-78; Arstall M A, et al., J Mol Cell Cardiol, 1998, 30:1019-25). NRVM were plated on the coated membrane dish at a density of 2,000,000 cells/dish in DMEM containing 7% FCS and incubated 24 h. Approximate cell confluence was 85-90%. NRVM were then made quiescent by washing with 10 ml of Hanks' balanced salt solution (HBSS, 138 mM NaCl, 5.3 mM KCl, 4.0 mM NaHCO3, 1.3 mM CaCl2, 0.5 mM MgCl2, 0.4 mM MgSO4, 0.4 mM KH2PO4, 0.3 mM Na2HPO4, 5.6 mM glucose; Life Technologies, Inc., Rockville, Md.) twice and incubating with 26 ml of DMEM containing 0.2% FCS for 48-72 hours.
The cDNA clones for differentially expressed genes were obtained by PCR using the GenBank sequences. Each clone was sequenced from both 5′ and 3′ ends to confirm identity. Positive elements in the DNA microarray were confirmed by Northern blot hybridization analysis in at least three independent experiments using three different sources of NRVMs. Total RNA was isolated by the guanidium thiocyanate and phenol chloroform method (Chomcyznski, et al., Anal. Biochem., 1987, 162:156-159). For Northern blotting, 15 μg RNA was loaded on a 1.0% agarose-formaldehyde gel (2.0 mol/l), transferred to a nylon membrane (Amersham Pharmacia Biotech AB, Piscataway, N.J.), and UV cross-linked with a UV Stratalinker (Stratagene, Inc., La Jolla, Calif.). Each probe was hybridized with ExpressHyb solution (Clontech Labs., Inc., Palo Alto, Calif.) at 68° C. for 1 hour. The membrane was washed with 2×SSC, 0.05% SDS solution for 30 to 40 minutes and three times at room temperature and 0.1×SSC, 0.1% SDS solution with continuous shaking at 50° C. for 40 minutes. The membrane was exposed to film at −80° C., and radiographs were scanned and analyzed with Optimas 5.0 software (Optimas Co./Media Cybernetics, Silver Springs, Md.). Densitometric units were normalized to the ethidium-stained 28S ribosomal subunit on the membrane.
T1/ST2 mRNA is induced by mechanical strain in cultured neonatal cardiac myocytes. Neonatal rat ventricular myocytes were isolated by collagenase digestion, plated on fibronectin-coated silicone membrane dishes at a density of 3.5 million cells/dish in 13 ml media as previously described (Yamamoto K, et al. J Biol. Chem. 1999; 274:21840-21846). This technique yields cultures with ≧95% myocytes. Mechanical deformation was applied using a device that provides uniform biaxial cyclic strain as previously described (Yamamoto K, et al. J Biol. Chem. 1999; 274:21840-21846). RNA was extracted (Qiagen) and Northern blotting was performed using as a probe a ^32P-labelled 600 bp PCR fragment specific to rat T1/ST2. Maximal induction occurs at 3 hours, is sustained for 9 hours and declines by 15 hours. […]

T1/ST2 mRNA = T1/ST2 mRNA induction in human adult vascular smooth muscle cells; format: cell-based

Q: How did the “mRNA expression of IL1RL-1 in the absence and presence of strain” value (IL1RL-1 mRNA expression; FIG. 3, TIRON 10 mM) turn out when `O=S(=O)(O)c1cc(O)c(O)c(S(=O)(=O)O)c1` [TIRON] was run?
A: The value was “slightly attenuated”.

Q: How did the “effect on the induction of IL1RL-1 mRNA expression by 8% mechanical strain” value (IL1RL-1 mRNA expression) turn out when `C[C@@H]1C[C@@H]([C@H](O)CC2CC(=O)NC(=O)C2)C(=O)[C@@H](C)C1` [cyclohexamide] was run?
A: Its value is “blocked the induction”.

Q: Which “effect on the induction of IL1RL-1 mRNA expression by 8% mechanical strain” value (IL1RL-1 mRNA expression) does the source give for `Cc1c2oc3c(C)ccc(C(=O)N[C@@H]4C(=O)N[C@H](C(C)C)C(=O)N5CCC[C@H]5C(=O)N(C)CC(=O)N(C)[C@@H](C(C)C)C(=O)O[C@@H]4C)c3nc-2c(C(=O)N[C@@H]2C(=O)N[C@H](C(C)C)C(=O)N3CCC[C@H]3C(=O)N(C)CC(=O)N(C)[C@@H](C(C)C)C(=O)O[C@@H]2C)c(N)c1=O` [Actinomycin D, actinomycin D] (I: T[dV]P[Sar][NMeV] / II: T[dV]P[Sar][NMeV]; ester I:1-I:C, II:1-II:C; linker I:N-II:N via Actinocin(9to1)) here?
A: The value was “blocked the induction”.

Q: For angiotensin II, which “induction of IL1RL-1 mRNA expression in the absence of mechanical strain” value (“induction … of mechanical strain” below) (IL1RL-1 mRNA expression) is on record?
A: The value was “did not induce”.

Q: `OO` [H2O2, hydrogen peroxide] was tested. Which “effect on the strain-induced induction of IL1RL-1” value (IL1RL-1 mRNA expression; FIG. 3, 8% mechanical strain, H2O2 100 uM) did it give?
A: The value was “blocks the strain-induced induction”.

Q: And the “induction of IL1RL-1 in the absence of strain” value (IL1RL-1 mRNA expression; FIG. 3, H2O2 100 uM)?
A: The value was “does not induce”.

Q: With interleukin-1β [IL-1β] as the compound, how does the “induction of T1/ST2 RNA in cardiac myocytes” value (IL1RL-1 mRNA expression) read?
A: Its value is “induce T1/ST2 RNA”.

Q: What about the “induction … of mechanical strain” value (IL1RL-1 mRNA expression) of the same compound?
A: Its value is “associated with an induction”.

Q: And the “induction of IL1RL-1 by mechanical strain in the presence of IL-1β” value (IL1RL-1 mRNA expression; FIG. 5, 8% strain plus IL-1β 10 ng/ml)?
A: Its value is “not further increased”.

Q: What about the “rank order potency for the induction of IL1RL-1 mRNA expression” value (IL1RL-1 mRNA expression; FIG. 5) of the same compound?
A: Its value is “PMA>strain>IL-1β”.

Q: And the “induction of IL1RL-1 mRNA expression by the agent alone” value (IL1RL-1 mRNA expression; FIG. 5)?
A: Its value is “induced”.

Q: And the “induction of T1/ST2 by mechanical strain in the presence of interleukin-1β” value (IL1RL-1 mRNA expression; FIG. 9, 8% strain plus interleukin-1 10 ng/ml)?
A: Its value is “not further increased”.

Q: And the “rank order potency for the induction of T1/ST2 mRNA expression” value (IL1RL-1 mRNA expression; FIG. 9, interleukin-1 10 ng/ml)?
A: Its value is “PMA>strain>interleukin-1β”.

Q: And the “rank order potency for the induction of T1/ST2 mRNA expression” value (IL1RL-1 mRNA expression; FIG. 9, interleukin-1 10 ng/ml, listed as IL-1)?
A: The value was “PMA>strain>IL-1”.

Q: What about the “induction of T1/ST2 mRNA in the presence of infection with control adenovirus” value (IL1RL-1 mRNA expression; FIG. 10, interleukin-1 10 ng/ml, 4 hours) of the same compound?
A: The value was “induced T1/ST2 mRNA”.

Q: What about the “induction of T1/ST2 mRNA” value (T1/ST2 mRNA) of the same compound?
A: Its value is “induced”.

Q: For `CCCCCCCCCCCCCC(=O)O[C@@H]1[C@@H](C)[C@@]2(O)[C@@H](C=C(CO)C[C@]3(O)C(=O)C(C)=C[C@@H]23)[C@@H]2C(C)(C)[C@]12OC(C)=O` [PMA], which “induction … of mechanical strain” value (IL1RL-1 mRNA expression) is on record?
A: Its value is “associated with an induction”.

Q: And the “rank order potency for the induction of IL1RL-1 mRNA expression” value (IL1RL-1 mRNA expression; FIG. 5)?
A: The value was “PMA>strain>IL-1β”.

Q: And the “induction of IL1RL-1 mRNA expression by the agent alone” value (IL1RL-1 mRNA expression; FIG. 5)?
A: Its value is “strongest induction”.

Q: What about the “rank order potency for the induction of T1/ST2 mRNA expression” value (IL1RL-1 mRNA expression; FIG. 9, interleukin-1 10 ng/ml) of the same compound?
A: Its value is “PMA>strain>interleukin-1β; also recorded: PMA>strain>IL-1”.

Q: And the “induction of T1/ST2 mRNA” value (T1/ST2 mRNA)?
A: The value was “not”.
